Reference: PubChem BioAssay (NCI)
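Results reflect a 48-hour exposure of cells in 96-well plates to compound at five concentrations. At the GI50, growth is halved. Definition used: TGI = concentration required for complete inhibition of growth.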

How the values were obtained:
Assay in all cases: NCI-60 cell line screen, 48 h
[1] = system: A549 NSCLC
[2] = system: COLO 205 colon
[3] = system: HOP-92 NSCLC
[4] = system: K-562 leukemia
[5] = system: LOX IMVI melanoma
[6] = system: NCI-H460 lung
[7] = system: RPMI-8226 leukemia
[8] = system: SNB-75 CNS
[9] = system: UO-31 renal
[10] = system: OVCAR-4 ovarian

Question: Which TGI [1] does the source give for `O=C1/C(=C/c2ccccc2Cl)COc2ccccc21` here?
Answer: Its TGI is 55.8 µM.

Question: What about the TGI [2] of the same molecule?
Answer: Its TGI is 40.1 µM.

Question: What about the TGI [3] of the same molecule?
Answer: The TGI was 29.4 µM.

Question: What about the TGI [4] of the same molecule?
Answer: Its TGI is 29.7 µM.

Question: And the TGI [5]?
Answer: The TGI was 35.8 µM.

Question: What about the TGI [6] of the same molecule?
Answer: The TGI was 43.6 µM.

Question: What about the TGI [7] of the same molecule?
Answer: The TGI was 22 µM.

Question: What about the TGI [8] of the same molecule?
Answer: Its TGI is 32.1 µM.

Question: What about the TGI [9] of the same molecule?
Answer: The TGI was 28.3 µM.

Question: `CC/C(=C(/CC)c1ccc(OP(=O)([O-])[O-])cc1)c1ccc(OP(=O)([O-])[O-])cc1.N.N.N.N.[Pt+4].[Pt+4]` was tested. Which GI50 [1] did it give?
Answer: Its GI50 is 2.45 µM.

Question: And the TGI [1]?
Answer: The TGI was 8.43 µM.

Question: And the GI50 [3]?
Answer: Its GI50 is 3.43 µM.

Question: And the TGI [3]?
Answer: Its TGI is 8.93 µM.

Question: What about the GI50 [4] of the same molecule?
Answer: Its GI50 is 4.63 µM.

Question: And the TGI [4]?
Answer: Its TGI is greater than 100 µM.

Question: And the GI50 [5]?
Answer: The GI50 was 2.08 µM.

Question: What about the TGI [5] of the same molecule?
Answer: Its TGI is 11.9 µM.

Question: And the GI50 [6]?
Answer: Its GI50 is 0.933 µM.

Question: What about the TGI [6] of the same molecule?
Answer: Its TGI is 7.62 µM.

Question: What about the GI50 [10] of the same molecule?
Answer: The GI50 was 1.95 µM.

Question: What about the TGI [10] of the same molecule?
Answer: The TGI was 7.54 µM.

Question: What about the GI50 [7] of the same molecule?
Answer: The GI50 was 4.19 µM.

Question: What about the TGI [7] of the same molecule?
Answer: The TGI was greater than 100 µM.

Question: What about the GI50 [8] of the same molecule?
Answer: The GI50 was 1.24 µM.

Question: What about the TGI [8] of the same molecule?
Answer: The TGI was 7.4 µM.

Question: What about the GI50 [9] of the same molecule?
Answer: The GI50 was 4.3 µM.

Question: What about the TGI [9] of the same molecule?
Answer: Its TGI is 25.4 µM.

Question: For `CC1(C)CC(C2CC(C)(C)CC(C)(C)[C@H]2O)[C@@H](O)C(C)(C)C1` (stereo partly drawn), which TGI [1] is on record?
Answer: The TGI was greater than 100 µM.

Question: What about the TGI [2] of the same molecule?
Answer: Its TGI is greater than 100 µM.

Question: And the TGI [4]?
Answer: The TGI was greater than 100 µM.

Question: What about the TGI [5] of the same molecule?
Answer: The TGI was greater than 100 µM.

Question: And the TGI [6]?
Answer: The TGI was greater than 100 µM.

Question: And the TGI [7]?
Answer: Its TGI is greater than 100 µM.

Question: And the TGI [9]?
Answer: The TGI was greater than 100 µM.

Question: Which TGI [1] does the source give for `Cc1ccc(S(=O)(=O)OC(C=O)C(O)C(O)COC(c2ccccc2)(c2ccccc2)c2ccccc2)cc1` (stereo not drawn) here?
Answer: The TGI was 33.3 µM.

Question: What about the TGI [4] of the same molecule?
Answer: The TGI was 35 µM.

Question: And the TGI [5]?
Answer: The TGI was 35.2 µM.

Question: And the TGI [6]?
Answer: Its TGI is 26.9 µM.

Question: What about the TGI [10] of the same molecule?
Answer: The TGI was 32.8 µM.

Question: And the TGI [7]?
Answer: Its TGI is 36.9 µM.

Question: And the TGI [8]?
Answer: The TGI was 29.4 µM.

Question: And the TGI [9]?
Answer: The TGI was 30.4 µM.

Question: Which results are given for `COC(=O)C1(c2ccc(OC)cc2)NC(c2ccccc2)C2C(=O)N(c3ccc(OC)cc3)C(=O)C21` (stereo not drawn)?
Answer: TGI [1]: > 100 µM; TGI [2]: > 100 µM; TGI [4]: > 100 µM; TGI [5]: > 100 µM; TGI [6]: > 100 µM; TGI [10]: > 100 µM; TGI [7]: > 100 µM; TGI [8]: > 100 µM; TGI [9]: > 100 µM

Question: With `N/C(=N\N=C=C1C(=O)Nc2ccc(F)cc21)NO` as the molecule, how does the TGI [1] read?
Answer: Its TGI is greater than 100 µM.

Question: And the TGI [2]?
Answer: Its TGI is greater than 100 µM.

Question: What about the TGI [3] of the same molecule?
Answer: Its TGI is greater than 100 µM.

Question: What about the TGI [4] of the same molecule?
Answer: Its TGI is greater than 100 µM.

Question: What about the TGI [5] of the same molecule?
Answer: The TGI was greater than 100 µM.

Question: What about the TGI [6] of the same molecule?
Answer: Its TGI is greater than 100 µM.

Question: And the TGI [10]?
Answer: Its TGI is greater than 100 µM.

Question: And the TGI [8]?
Answer: The TGI was 65.9 µM.

Question: With `Nc1cc2c3c(cccc3c1)C(=O)N(CCN1CCN(CCN3C(=O)c4cccc5cc(N)cc(c45)C3=O)CC1)C2=O` as the molecule, how does the TGI [1] read?
Answer: Its TGI is greater than 100 µM.

Question: And the TGI [2]?
Answer: The TGI was greater than 100 µM.

Question: What about the TGI [3] of the same molecule?
Answer: The TGI was greater than 100 µM.

Question: And the TGI [4]?
Answer: The TGI was greater than 100 µM.

Question: And the TGI [6]?
Answer: Its TGI is greater than 100 µM.

Question: What about the TGI [10] of the same molecule?
Answer: The TGI was greater than 100 µM.

Question: And the TGI [7]?
Answer: Its TGI is greater than 100 µM.

Question: And the TGI [8]?
Answer: The TGI was greater than 100 µM.

Question: And the TGI [9]?
Answer: Its TGI is greater than 100 µM.

Question: How did the GI50 [1] turn out when `C=C1CCC2C3(C)COC(c4cccc(Cl)c4)OC3CCC2(C)C1/C=C/C1=CCOC1=O` (stereo not drawn) was run?
Answer: Its GI50 is 3.31 µM.

Question: What about the TGI [1] of the same molecule?
Answer: The TGI was greater than 100 µM.

Question: What about the GI50 [3] of the same molecule?
Answer: The GI50 was greater than 100 µM.

Question: And the TGI [3]?
Answer: Its TGI is greater than 100 µM.

Question: What about the GI50 [4] of the same molecule?
Answer: Its GI50 is 2.8 µM.

Question: What about the TGI [4] of the same molecule?
Answer: Its TGI is greater than 100 µM.

Question: And the GI50 [5]?
Answer: The GI50 was 2.72 µM.

Question: What about the TGI [5] of the same molecule?
Answer: Its TGI is greater than 100 µM.

Question: And the GI50 [6]?
Answer: The GI50 was 5.15 µM.

Question: And the TGI [6]?
Answer: Its TGI is greater than 100 µM.

Question: And the GI50 [7]?
Answer: Its GI50 is 2.9 µM.

Question: What about the TGI [7] of the same molecule?
Answer: The TGI was greater than 100 µM.

Question: What about the GI50 [8] of the same molecule?
Answer: The GI50 was 6.46 µM.

Question: And the TGI [8]?
Answer: The TGI was greater than 100 µM.

Question: Which results are given for `Cc1ccc(NC(=O)CCC(=O)C2CC(=O)CCC2=O)cc1C` (stereo not drawn)?
Answer: TGI [1]: > 100 µM; TGI [2]: > 100 µM; TGI [3]: > 100 µM; TGI [4]: > 100 µM; TGI [5]: > 100 µM; TGI [6]: > 100 µM; TGI [10]: > 100 µM; TGI [9]: > 100 µM

Question: Which TGI [2] does the source give for `Cn1c(=O)c2c(nc3n2C(CCl)CO3)n(C)c1=O` (stereo not drawn) here?
Answer: Its TGI is greater than 100 µM.

Question: What about the TGI [3] of the same molecule?
Answer: Its TGI is greater than 100 µM.

Question: What about the TGI [4] of the same molecule?
Answer: Its TGI is greater than 100 µM.

Question: What about the TGI [6] of the same molecule?
Answer: Its TGI is greater than 100 µM.

Question: And the TGI [10]?
Answer: The TGI was greater than 100 µM.

Question: And the TGI [7]?
Answer: The TGI was greater than 100 µM.

Question: And the TGI [8]?
Answer: Its TGI is greater than 100 µM.

Question: What about the TGI [9] of the same molecule?
Answer: Its TGI is greater than 100 µM.
